Experimental findings from US20230089368A1, “POLYAROMATIC UREA DERIVATIVES AND THEIR USE IN THE TREATMENT OF MUSCLE DISEASES” (ANAGENESIS BIOTECHNOLOGIES S.A.S., priority 2019, published 2023) are described below.

For assay [1], the system named is satellite-like cells (Pax7-positive cells) in hMP. Kind of assay: Myotube assay: Pax7-positive (satellite-like) cell quantification. In kind it is cell-based, human. Also on record: key to Pax7% (pool of Pax7-positive cells) / Pax7: −: Depletes the pool of cells, while positively affects the myotubes; +: Maintains or increases the pool of cells, with at least 1 of the highest concentration known to be cytotoxic; ++: Maintains or increases the pool of cells, without any toxicity. The note with it: for Pax7% (pool of Pax7-positive cells): myotube assay, compounds incubated 3 days. The essentials:
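DMD hiPSC-derived muscle progenitors (hMP) proliferated 4 days, then plated on collagen I in K5 medium with 5 μM Y-27632. Compound added at 1.5 nM–30 μM for 3 days at 37° C, then cells fixed and immunostained. Pax7-positive cells counted as percentage of total nuclei, duplicates averaged.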

Assay [2] relates to muscle progenitors (hMP) from DMD hiPSC or WT hiPSC. Kind of assay: Myotube assay: myogenic activity (total myotube area per well). In kind it is cell-based, human. The note with it: for Emax / EC50: Homo sapiens, 72 h, myotube assay, compounds incubated 3 days; for Emax: read-out: MA (normalized Myotube Area, efficacy); for EC50: 10 points dose-response 1.5 nM to 30 μM, read-out: EC50 (myogenic activity, half-maximal generation of myotubes). Summed up:
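DMD or WT hiPSC-derived muscle progenitors plated on collagen I in K5 medium with 5 μM Y-27632, treated with compound (1.5 nM–30 μM) for 3 days at 37° C. Cells were fixed, stained for alpha-actinin and imaged for total myotube area per well. EC50 and normalized myotube area (MA) taken from duplicate-averaged data.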

Consider `CSc1cc(Oc2ccnc3[nH]c(=O)cnc23)ccc1NC(=O)Nc1cc(C(C)(C)C)nn1-c1ccccc1Cl` [(at), 1-(3-(tert-butyl)-1-(2-chlorophenyl)-1H-pyrazol-5-yl)-3-(2-(methylthio)-4-((3-oxo-3,4-dihydropyrido[2,3-b]pyrazin-8-yl)oxy)phenyl)urea], for which the “Pax7% (pool of Pax7-positive cells)” value in assay [1] is listed as “++”. For the same compound, the Emax in assay [2] is ≥ 75%.
For the compound `CSc1cc(Oc2ccnc3[nH]c(=O)cnc23)ccc1NC(=O)Nc1ncc(C(C)(C)C)s1` [(ah), 1-(5-(tert-butyl)thiazol-2-yl)-3-(2-(methylthio)-4-((3-oxo-3,4-dihydropyrido[2,3-b]pyrazin-8-yl)oxy)phenyl)urea], the “Pax7% (pool of Pax7-positive cells)” value in assay [1] is “++”. Further, the Emax in assay [2] was ≥ 75%.
For `CSc1cc(Oc2ccnc3c2CCCN3)ccc1NC(=O)Nc1cc(C(C)(C)C)nn1-c1ccccc1` [(be), 1-(3-(tert-butyl)-1-phenyl-1H-pyrazol-5-yl)-3-(2-(methylthio)-4-((5,6,7,8-tetrahydro-1,8-naphthyridin-4-yl)oxy)phenyl)urea], the “Pax7% (pool of Pax7-positive cells)” value in assay [1] is listed as “++”. Also, in assay [2], the EC50 lay in the range of 500 to 1000 nM and the Emax was ≥ 75%.
Consider `Cc1cc(NC(=O)Nc2ccc(Oc3ccnc4[nH]c(=O)cnc34)cc2F)n(-c2ccccc2)n1` [(a), 1-(2-fluoro-4-((3-oxo-3,4-dihydropyrido[2,3-b]pyrazin-8-yl)oxy)phenyl)-3-(3-methyl-1-phenyl-1H-pyrazol-5-yl)urea], for which the “Pax7% (pool of Pax7-positive cells)” value in assay [1] is listed as “++”. Also, the Emax in assay [2] lay within 25 to 50%.
For `CC(C)(C)c1cnc(NC(=O)Nc2ccc(Oc3ccnc4c3CCC(=O)N4)c3ccccc23)s1` [(cu), 1-(5-(tert-butyl)thiazol-2-yl)-3-(4-((7-oxo-5,6,7,8-tetrahydro-1,8-naphthyridin-4-yl)oxy)naphthalen-1-yl)urea] the same measures were “++” and ≥ 75%.
Take `CC(C)(C)c1cc(NC(=O)Nc2ccc(Oc3ccnc4[nH]c(=O)cnc34)c3ccccc23)n(-c2ccc3ncccc3c2)n1` [(bb), 1-(3-(tert-butyl)-1-(quinolin-6-yl)-1H-pyrazol-5-yl)-3-(4-((3-oxo-3,4-dihydropyrido[2,3-b]pyrazin-8-yl)oxy)naphthalen-1-yl)urea]: the “Pax7% (pool of Pax7-positive cells)” value in assay [1] was “+”. Moreover, in assay [2], the Emax is ≥ 75%.
For `COc1cccc(-n2nc(C(C)(C)C)cc2NC(=O)Nc2ccc(Oc3ccnc4[nH]c(=O)cnc34)cc2SC)c1` [(aw), 1-(3-(tert-butyl)-1-(3-methoxyphenyl)-1H-pyrazol-5-yl)-3-(2-(methylthio)-4-((3-oxo-3,4-dihydropyrido[2,3-b]pyrazin-8-yl)oxy)phenyl)urea] the same measures were “+” and ≥ 75%.
Turning to `CNCC(=O)Nc1cc(Oc2ccc(NC(=O)Nc3cc(C(C)(C)C)nn3-c3ccccc3)c(SC)c2)ccn1` [(bq), N-(4-(4-(3-(3-(tert-butyl)-1-phenyl-1H-pyrazol-5-yl)ureido)-3-(methylthio)phenoxy)pyridin-2-yl)-2-(methylamino)acetamide], the “Pax7% (pool of Pax7-positive cells)” value in assay [1] was “+”. In assay [2], the EC50 is < 500 nM and the Emax is ≥ 75%.
As to `CSc1cc(Oc2ccnc3[nH]c(=O)cnc23)ccc1NC(=O)Nc1cc(C(C)(C)C)on1` [(dh), 1-(5-(tert-butyl)isoxazol-3-yl)-3-(2-(methylthio)-4-((3-oxo-3,4-dihydropyrido[2,3-b]pyrazin-8-yl)oxy)phenyl)urea], in assay [1], the “Pax7% (pool of Pax7-positive cells)” value is listed as “+”. Also, the Emax in assay [2] was ≥ 75%.
Consider `CC(C)(C)c1cc(NC(=O)Nc2ccc(Oc3ccnc4[nH]c(=O)cnc34)cc2F)sn1` [(q), 1-(3-(tert-butyl)isothiazol-5-yl)-3-(2-fluoro-4-((3-oxo-3,4-dihydropyrido[2,3-b]pyrazin-8-yl)oxy)phenyl)urea], for which the “Pax7% (pool of Pax7-positive cells)” value in assay [1] was “++”. The Emax in assay [2] was in the range of 50 to 75%.
The corresponding values for `CSc1cc(Oc2ccnc(NS(C)(=O)=O)c2)ccc1NC(=O)Nc1cc(C(C)(C)C)no1` [(dl), N-(4-(4-(3-(3-(tert-butyl)isoxazol-5-yl)ureido)-3-(methylthio)phenoxy)pyridin-2-yl)methanesulfonamide] are “++” and ≥ 75%.
For `CSc1cc(Oc2ccnc3[nH]c(=O)cnc23)ccc1NC(=O)Nc1cc(C(C)(C)C)nn1-c1cccc(Cl)c1` [(as), 1-(3-(tert-butyl)-1-(3-chlorophenyl)-1H-pyrazol-5-yl)-3-(2-(methylthio)-4-((3-oxo-3,4-dihydropyrido[2,3-b]pyrazin-8-yl)oxy)phenyl)urea] the same measures were “+” and ≥ 75%.
For `CC(C)(C)c1cc(NC(=O)Nc2ccc(Oc3ccnc4[nH]c(=O)cnc34)c(OC(F)(F)F)c2)n(-c2ccccc2)n1` [(cp), 1-(3-(tert-butyl)-1-phenyl-1H-pyrazol-5-yl)-3-(4-((3-oxo-3,4-dihydropyrido[2,3-b]pyrazin-8-yl)oxy)-3-(trifluoromethoxy)phenyl)urea] the same measures were “+” and 50 to 75%.
For the compound `CC(C)(C)c1cc(NC(=O)Nc2ccc(C(=O)c3ccncc3)cc2)n(-c2ccccc2)n1` [(cs), 1-(3-(tert-butyl)-1-phenyl-1H-pyrazol-5-yl)-3-(4-isonicotinoylphenyl)urea], the “Pax7% (pool of Pax7-positive cells)” value in assay [1] is “+”. In addition, the Emax in assay [2] is 25 to 50%.
Regarding `CSc1cc(Oc2ccnc3nccnc23)ccc1NC(=O)Nc1cc(C(C)(C)C)nn1-c1ccccc1` [(bs), 1-(3-(tert-butyl)-1-phenyl-1H-pyrazol-5-yl)-3-(2-(methylthio)-4-(pyrido[2,3-b]pyrazin-8-yloxy)phenyl)urea], the “Pax7% (pool of Pax7-positive cells)” value in assay [1] is listed as “++”. Besides, the Emax in assay [2] was ≥ 75%.
For `CSc1cc(Oc2ccnc3[nH]c(=O)cnc23)ccc1NC(=O)Nc1nc(C(C)(C)C)cs1` [(ca), 1-(4-(tert-butyl)thiazol-2-yl)-3-(2-(methylthio)-4-((3-oxo-3,4-dihydropyrido[2,3-b]pyrazin-8-yl)oxy)phenyl)urea] the same measures were “++” and ≥ 75%.
As to `CSc1cc(Oc2ccnc3[nH]c(=O)cnc23)ccc1NC(=O)Nc1cc(C(C)(C)C)nn1CCN(C)C` [(bg), 1-(3-(tert-butyl)-1-(2-(dimethylamino)ethyl)-1H-pyrazol-5-yl)-3-(2-(methylthio)-4-((3-oxo-3,4-dihydropyrido[2,3-b]pyrazin-8-yl)oxy)phenyl)urea], the “Pax7% (pool of Pax7-positive cells)” value in assay [1] was “++”. In assay [2], the EC50 is ≥ 5000 nM and the Emax was ≥ 75%.
For `O=C(Nc1ccc(Oc2ccnc3[nH]c(=O)cnc23)cc1F)Nc1c(-c2ccccc2)nn2c1CCC2` [(y), 1-(2-fluoro-4-((3-oxo-3,4-dihydropyrido[2,3-b]pyrazin-8-yl)oxy)phenyl)-3-(2-phenyl-5,6-dihydro-4H-pyrrolo[1,2-b]pyrazol-3-yl)urea], the “Pax7% (pool of Pax7-positive cells)” value in assay [1] is listed as “++”. The Emax in assay [2] is 25 to 50%.
The corresponding values for `CSc1cc(Oc2ccnc(NC(=O)CN(C)C(=O)OC(C)(C)C)c2)ccc1NC(=O)Nc1cc(C(C)(C)C)nn1-c1ccccc1` [(bp), tert-butyl (2-((4-(4-(3-(3-(tert-butyl)-1-phenyl-1H-pyrazol-5-yl)ureido)-3-(methylthio)phenoxy)pyridin-2-yl)amino)-2-oxoethyl)(methyl)carbamate] are “+” and ≥ 75%.
Regarding `CC(C)(C)c1nnc(NC(=O)Nc2ccc(Oc3ccnc4[nH]c(=O)cnc34)cc2F)s1` [(r), 1-(5-(tert-butyl)-1,3,4-thiadiazol-2-yl)-3-(2-fluoro-4-((3-oxo-3,4-dihydropyrido[2,3-b]pyrazin-8-yl)oxy)phenyl)urea], the “Pax7% (pool of Pax7-positive cells)” value in assay [1] was “++”. For the same compound, in assay [2], the Emax was ≥ 75%.
Take `CC(C)(C)c1cc(NC(=O)Nc2ccc(Oc3ccc(F)cc3)cc2F)n(-c2ccccc2)n1` [(af), 1-(3-(tert-butyl)-1-phenyl-1H-pyrazol-5-yl)-3-(2-fluoro-4-(4-fluorophenoxy)phenyl)urea]: the “Pax7% (pool of Pax7-positive cells)” value in assay [1] is “++”. Besides, the Emax in assay [2] lay within 25 to 50%.
Take `CC(C)n1nc(C(C)(C)C)cc1NC(=O)Nc1ccc(Oc2ccnc3[nH]c(=O)cnc23)cc1F` [(i), 1-(3-(tert-butyl)-1-isopropyl-1H-pyrazol-5-yl)-3-(2-fluoro-4-((3-oxo-3,4-dihydropyrido[2,3-b]pyrazin-8-yl)oxy)phenyl)urea]: the “percentage of Pax7-positive cells” value in assay [1] (DMD hMP, 10 concentrations 1.5 nM to 30 μM, 3 days, FIG. 3) is given as “dose-dependent increase”. Also, in assay [1], the “Pax7% (pool of Pax7-positive cells)” value is listed as “+”. For the same compound, the “total myotube surface/well (myogenic activity)” value in assay [2] (DMD hMP, 10 concentrations 1.5 nM to 30 μM, 3 days, FIG. 2) is recorded as “dose-dependent increase”. In assay [2], the Emax was in the range of 50 to 75%.
On to `CSc1cc(Oc2ccnc3[nH]c(=O)cnc23)ccc1NC(=O)Nc1cc(C(C)(C)C)nn1-c1cccc(F)c1` [(bw), 1-(3-(tert-butyl)-1-(3-fluorophenyl)-1H-pyrazol-5-yl)-3-(2-(methylthio)-4-((3-oxo-3,4-dihydropyrido[2,3-b]pyrazin-8-yl)oxy)phenyl)urea], for which the “Pax7% (pool of Pax7-positive cells)” value in assay [1] is “++”. For the same compound, in assay [2], the Emax was ≥ 75%.
